Laboratory results as given in the CombiSolv-Exp solvation set (Vermeire and Green 2021).

Assay: solvent given as SMILES
[1] = in CCCCCCCCC=CCCCCCCCC(=O)OCC(COC(=O)CCCCCCCC=CCCCCCCCC)OC(=O)CCCCCCCC=CCCCCCCCC

Ic1ccccc1
solvation free energy, 298 K (in C1CCOC1): -7.38 kcal/mol | solvation free energy, 298 K (in C1COCCO1): -7.22 kcal/mol | solvation free energy, 298 K (in CCCCCCC): -6.27 kcal/mol | solvation free energy, 298 K (in CCCCCCCCCCCCCCCC): -6.11 kcal/mol | solvation free energy, 298 K (in CN(C)C=O): -7.09 kcal/mol | solvation free energy, 298 K (in ClC(Cl)(Cl)Cl): -6.81 kcal/mol | solvation free energy, 298 K (in N#Cc1ccccc1): -6.98 kcal/mol | solvation free energy, 298 K (in O): -1.75 kcal/mol | solvation free energy, 298 K (in OCCO): -5.28 kcal/mol

CCCC(=O)CC
solvation free energy, 298 K (in O): -3.07 kcal/mol

C#CCCCCCC
solvation free energy, 298 K (in CN1CCCC1=O): -4.98 kcal/mol | solvation free energy, 298 K (in CN(C)C=O): -4.99 kcal/mol | solvation free energy, 298 K (in CS(C)=O): -4.42 kcal/mol | solvation free energy, 298 K (in N#CCCCCC#N): -4.31 kcal/mol | solvation free energy, 298 K (in NCCO): -3.17 kcal/mol | solvation free energy, 298 K (in O): 0.71 kcal/mol

FC(Cl)Cl
solvation free energy, 298 K (in CN1CCCC1=O): -1.34 kcal/mol | solvation free energy, 298 K (in CN(C)C=O): -1.35 kcal/mol | solvation free energy, 298 K (in O): 1.54 kcal/mol

CC(=O)OC1(C(C)C)CC=C(C)CC1 (stereo not drawn)
solvation free energy, 298 K (in O): -3.25 kcal/mol

ICI
solvation free energy, 298 K (in O): -2.49 kcal/mol

CC1CCC2=C1CC1CCC2(C)C1(C)C (stereo not drawn)
solvation free energy, 298 K (in O): 0.78 kcal/mol

CCCC(=O)c1c(C)[nH]n(-c2ccccc2)c1=O
solvation free energy, 298 K (in O): -9.51 kcal/mol

NC(N)=S
solvation free energy, 298 K (in CCCCCCO): -9.57 kcal/mol | solvation free energy, 298 K (in CCCCCO): -9.72 kcal/mol | solvation free energy, 298 K (in CCCCO): -9.97 kcal/mol | solvation free energy, 298 K (in CCCO): -10.2 kcal/mol | solvation free energy, 298 K (in CCO): -10.6 kcal/mol

N#CCCOCCC#N
solvation free energy, 298 K (in CCCCCCC): -7.82 kcal/mol

CCNc1nc(Cl)nc(NC(C)(C)C)n1
solvation free energy, 298 K (in O): -8.66 kcal/mol

NCCO
solvation free energy, 298 K (in CCCCCCC): -2.5 kcal/mol

CC(=O)O
solvation free energy, 298 K (in C=CCCCCCCC=C): -2.71 kcal/mol | solvation free energy, 298 K (in C=CCCCCCCCCCCCCCC): -2.41 kcal/mol | solvation free energy, 298 K (in [2H]O[2H]): -6.55 kcal/mol

C1=CCC=CC1
solvation free energy, 298 K (in C1CCC2CCCCC2C1): -4.4 kcal/mol | solvation free energy, 298 K (in C1CCC(C2CCCCC2)CC1): -4.34 kcal/mol | solvation free energy, 298 K (in CCC(C)=O): -4.41 kcal/mol | solvation free energy, 298 K (in O): -0.67 kcal/mol | solvation free energy, 298 K (in c1ccc2c(c1)CCCC2): -4.58 kcal/mol | solvation free energy, 298 K (in c1ccc(C2CCCCC2)cc1): -4.49 kcal/mol

Cc1ccc2cc(C)ccc2c1
solvation free energy, 298 K [1]: -8.29 kcal/mol | solvation free energy, 298 K (in CCCCCCCO): -8.28 kcal/mol | solvation free energy, 298 K (in CCCCCCO): -8.36 kcal/mol | solvation free energy, 298 K (in CCCCCO): -8.49 kcal/mol | solvation free energy, 298 K (in CCCCO): -8.59 kcal/mol | solvation free energy, 298 K (in CCO): -8.85 kcal/mol | solvation free energy, 298 K (in O): -2.37 kcal/mol

C=C1C=CC2(C(C)C)CC12 (stereo not drawn)
solvation free energy, 298 K (in O): -0.12 kcal/mol

CC(C)=CCCC(C)CCOC=O (stereo not drawn)
solvation free energy, 298 K (in O): -3.08 kcal/mol

O=C(O)C=Cc1ccccc1
solvation free energy, 298 K (in O): -8.38 kcal/mol

Nc1ccc(Cl)cc1
solvation free energy, 298 K (in O): -5.91 kcal/mol

CCC(C)CCC(C)C (stereo not drawn)
solvation free energy, 298 K (in CCCO): -4.64 kcal/mol

O=C(O)CCCCCCCc1ccccc1
solvation free energy, 298 K (in O): -8.98 kcal/mol

CC1CCCC(O)C1 (stereo not drawn)
solvation free energy, 298 K (in O): -5.21 kcal/mol

Clc1cc(-c2ccccc2)c(Cl)c(Cl)c1Cl
solvation free energy, 298 K (in CCCCCCCCO): -11.7 kcal/mol | solvation free energy, 298 K (in O): -3.29 kcal/mol

CC1=CCC2(C)CCCC(C)(C)C23CC13 (stereo not drawn)
solvation free energy, 298 K (in O): 0.46 kcal/mol

c1ccc(CCc2ccccc2)cc1
solvation free energy, 298 K (in CCCCCCCCO): -8.8 kcal/mol

CCCOC
solvation free energy, 298 K (in O): -1.66 kcal/mol

Cn1ccnc1
solvation free energy, 298 K (in O): -8.41 kcal/mol

O=[N+]([O-])c1ccc(O)cc1
solvation free energy, 298 K (in CCCCCC): -7.93 kcal/mol | solvation free energy, 298 K (in CCCCCCC): -7.93 kcal/mol | solvation free energy, 298 K (in CCCCCCCC): -7.93 kcal/mol | solvation free energy, 298 K (in CCCCCCCCCC): -7.93 kcal/mol | solvation free energy, 298 K (in CCCCOCCCC): -11.8 kcal/mol | solvation free energy, 298 K (in O): -10.7 kcal/mol

CCNc1nc(NC(C)C)nc(OC)n1
solvation free energy, 298 K (in O): -10.2 kcal/mol

Clc1ccc(-c2ccc(Cl)c(Cl)c2Cl)cc1Cl
solvation free energy, 298 K (in CCCCCCCCO): -12.9 kcal/mol

CCCCCCCCP(=O)(CCCCCCCC)CCCCCCCC
solvation free energy, 298 K (in O): -15.5 kcal/mol

CN(C)C(=O)c1ccccc1
solvation free energy, 298 K (in O): -9.29 kcal/mol

O=C1CCCC1
solvation free energy, 298 K (in CCCCCCC): -4.53 kcal/mol | solvation free energy, 298 K (in CCCCCCCCCCCCCCCC): -4.22 kcal/mol | solvation free energy, 298 K (in CCCCCCCCO): -5.02 kcal/mol | solvation free energy, 298 K (in CCCCCl): -5.46 kcal/mol | solvation free energy, 298 K (in CCCCOCCCC): -4.82 kcal/mol | solvation free energy, 298 K (in ClC(Cl)(Cl)Cl): -5.54 kcal/mol | solvation free energy, 298 K (in ClCCCl): -6.26 kcal/mol | solvation free energy, 298 K (in O): -4.72 kcal/mol | solvation free energy, 298 K (in [2H]O[2H]): -4.75 kcal/mol

COC(CCl)(OC)OC
solvation free energy, 298 K (in O): -4.59 kcal/mol

CC(C)CC(=O)CC(=O)CC(C)C
solvation free energy, 298 K (in O): -4.42 kcal/mol

C#CC=C
solvation free energy, 298 K (in C1COCCO1): -3.21 kcal/mol | solvation free energy, 298 K (in CC(C)=O): -3.19 kcal/mol | solvation free energy, 298 K (in CC(C)CC(C)(C)C): -2.21 kcal/mol | solvation free energy, 298 K (in CN(C)C=O): -3.28 kcal/mol | solvation free energy, 298 K (in COC(C)=O): -3.19 kcal/mol | solvation free energy, 298 K (in Cc1ccc(C)cc1): -3.07 kcal/mol | solvation free energy, 298 K (in O): 0.04 kcal/mol

CCCCCCCCN
solvation free energy, 298 K (in CCCCCCC): -6.96 kcal/mol | solvation free energy, 298 K (in O): -3.73 kcal/mol

C=CCCCCCC
solvation free energy, 298 K (in CC#N): -3.98 kcal/mol | solvation free energy, 298 K (in CCC#N): -4.66 kcal/mol | solvation free energy, 298 K (in CCCC#N): -4.42 kcal/mol | solvation free energy, 298 K (in CCCCC(CC)COC(=O)CCCCC(=O)OCC(CC)CCCC): -4.72 kcal/mol | solvation free energy, 298 K (in CCCCCCC): -5.17 kcal/mol | solvation free energy, 298 K [1]: -4.65 kcal/mol | solvation free energy, 298 K (in CCCCCCCCO): -4.58 kcal/mol | solvation free energy, 298 K (in CCCCOC(=O)c1ccccc1C(=O)OCCCC): -4.62 kcal/mol | solvation free energy, 298 K (in CCN1CCCC1=O): -4.36 kcal/mol | solvation free energy, 298 K (in CCN(CC)C(C)=O): -4.5 kcal/mol | solvation free energy, 298 K (in CCNC(C)=O): -4.23 kcal/mol | solvation free energy, 298 K (in CCNC=O): -3.97 kcal/mol | solvation free energy, 298 K (in CCOC(=O)c1ccccc1C(=O)OCC): -4.11 kcal/mol | solvation free energy, 298 K (in CN1CCCC1=O): -4.02 kcal/mol | solvation free energy, 298 K (in CN(C)C=O): -3.89 kcal/mol | solvation free energy, 298 K (in CNC=O): -3.6 kcal/mol | solvation free energy, 298 K (in CS(C)=O): -3.04 kcal/mol | solvation free energy, 298 K (in N#CCCCCC#N): -3.31 kcal/mol | solvation free energy, 298 K (in NC=O): -1.58 kcal/mol | solvation free energy, 298 K (in NCCO): -2.07 kcal/mol | solvation free energy, 298 K (in Nc1ccccc1): -3.82 kcal/mol | solvation free energy, 298 K (in O): 1.93 kcal/mol | solvation free energy, 298 K (in O=C1CCCO1): -3.53 kcal/mol | solvation free energy, 298 K (in O=CN1CCOCC1): -3.4 kcal/mol | solvation free energy, 298 K (in OCCO): -1.81 kcal/mol | solvation free energy, 298 K (in OCCOCCO): -2.55 kcal/mol | solvation free energy, 298 K (in OCCOCCOCCO): -2.78 kcal/mol

Cc1c(C(=O)O)cc([N+](=O)[O-])cc1[N+](=O)[O-]
solvation free energy, 298 K (in C1CCOC1): -17.5 kcal/mol | solvation free energy, 298 K (in C1COCCO1): -17.5 kcal/mol | solvation free energy, 298 K (in CC(C)(C)O): -16 kcal/mol | solvation free energy, 298 K (in CC(C)CCO): -15.8 kcal/mol | solvation free energy, 298 K (in CC(C)CO): -15.7 kcal/mol | solvation free energy, 298 K (in CC(C)O): -16.2 kcal/mol | solvation free energy, 298 K (in CCC(C)O): -16.1 kcal/mol | solvation free energy, 298 K (in CCCC(C)O): -15.9 kcal/mol | solvation free energy, 298 K (in CCCCCCCCCCO): -15.3 kcal/mol | solvation free energy, 298 K (in CCCCCCCCO): -15.6 kcal/mol | solvation free energy, 298 K (in CCCCCCCO): -15.9 kcal/mol | solvation free energy, 298 K (in CCCCCCO): -15.8 kcal/mol | solvation free energy, 298 K (in CCCCCO): -16 kcal/mol | solvation free energy, 298 K (in CCCCO): -16.1 kcal/mol | solvation free energy, 298 K (in CCCCOC(C)=O): -16.2 kcal/mol | solvation free energy, 298 K (in CCCO): -16.2 kcal/mol | solvation free energy, 298 K (in CCOC(C)=O): -16.4 kcal/mol | solvation free energy, 298 K (in COC(C)=O): -16.7 kcal/mol | solvation free energy, 298 K (in O): -13.6 kcal/mol

COc1cc(Cl)c(Cl)c(Cl)c1Cl
solvation free energy, 298 K (in O): -2.55 kcal/mol

c1ccc2c(c1)OCCOCCOCCOc1ccccc1OCCOCCOCCO2
solvation free energy, 298 K (in Cc1cccc(C)c1): -27.3 kcal/mol | solvation free energy, 298 K (in O): -23.6 kcal/mol

CCC1CO1 (stereo not drawn)
solvation free energy, 298 K (in CC(C)O): -3.72 kcal/mol | solvation free energy, 298 K (in COC(=O)OC): -4.11 kcal/mol | solvation free energy, 298 K (in COC(C)=O): -4.16 kcal/mol | solvation free energy, 298 K (in ClC(Cl)Cl): -4.9 kcal/mol | solvation free energy, 298 K (in O): -2.93 kcal/mol

NC(N)=O
solvation free energy, 298 K (in O): -13.6 kcal/mol

Clc1ccc(Cl)c(-c2cc(Cl)c(Cl)cc2Cl)c1
solvation free energy, 298 K (in CCCCCCCCO): -12 kcal/mol | solvation free energy, 298 K (in O): -2.82 kcal/mol

CS
solvation free energy, 298 K (in O): -1.18 kcal/mol
